According to publication PMC5053523, “In Vitro Antibacterial Activity of Rhodanine Derivatives against Pathogenic Clinical Isolates” (PLoS ONE, 2016):
Like-named read-outs stand apart in the source and are kept apart here.

Key:
MRSA USA300 = experiment: MIC against MRSA USA300 with and without 4% human serum albumin; format: cell-based, Staphylococcus aureus; details: for antibacterial activity in the presence or absence of HSA: MRSA USA300; for MIC: Staphylococcus aureus, read-out: MIC against MRSA USA300
Method: The minimum inhibitory concentration (MIC) and the minimum bactericidal concentration (MBC) of rhodanine compounds 1 to 7 were determined against various Gram-positive and Gram-negative pathogens (S1 Table) following the guidelines of the Clinical and Laboratory Standards Institute (CLSI)[4]. The broth microdilution technique was used, followed by subculturing on agar plates that were rhodanine—free. […] The MICs reported represent the lowest concentration of each compound necessary to inhibit bacterial growth and the MBCs represent the lowest concentration required to reduce the initial bacterial inoculum by ≥ 99.9%.
The antimicrobial activity of rhodanine compounds in the presence of 4% human serum albumin (HSA) was tested against MRSA USA300. The MICs of rhodanine compounds and control antibiotics (vancomycin and daptomycin) were tested as described in the methods above using tryptic soy broth spiked with 4% HSA. We also synthesized and tested three more compounds, ethyl ester and amide of rhodanine 2 (Rh 8 and Rh 10, respectively) and ethyl ester of rhodanine 3 (Rh 9) to determine the influence of a carboxyl group modification toward anti-MRSA activity and human serum albumin (HSA) binding.

Klebsiella pneumoniae [1] = experiment: MIC with/without sub-MIC colistin, Klebsiella pneumoniae; format: cell-based; details: Klebsiella pneumoniae ATCC BAA 2146
Method: (§1) The MIC of the rhodanines and control antibiotics, in the presence of a sub-inhibitory concentration of colistin or polymixin B nonapeptide (PMBN), against Gram-negative bacteria was evaluated as described before. The antibacterial activity of the rhodanines was further investigated against E. coli SM1411Δ acrAB, a strain that is deficient in the multidrug-resistant AcrAB efflux pump, as described before.

Acinetobacter baumannii [2] = experiment: MIC with/without sub-MIC colistin, Acinetobacter baumannii; format: cell-based
Method: as §1

Salmonella Typhimurium = experiment: MIC with/without sub-MIC colistin, Salmonella Typhimurium; format: cell-based; details: Salmonella Typhimurium ATCC 700720
Method: as §1

Pseudomonas aeruginosa [3] = experiment: MIC with/without sub-MIC colistin, Pseudomonas aeruginosa; format: cell-based; details: Pseudomonas aeruginosa, ATCC921
Method: as §1

Escherichia coli O157:H7 [4] = experiment: MIC with/without sub-MIC colistin, Escherichia coli O157:H7; format: cell-based
Method: as §1

Pseudomonas aeruginosa [5] = experiment: MIC with/without PMBN, Pseudomonas aeruginosa; format: cell-based; details: Pseudomonas aeruginosa, ATCC9721
Method: as §1

Klebsiella pneumoniae [6] = experiment: MIC with/without PMBN, Klebsiella pneumoniae; format: cell-based
Method: as §1

Escherichia coli O157:H7 [7] = experiment: MIC with/without PMBN, Escherichia coli O157:H7; format: cell-based
Method: as §1

Acinetobacter baumannii [8] = experiment: MIC with/without PMBN, Acinetobacter baumannii; format: cell-based
Method: as §1

[9] = Acinetobacter baumannii ATCC BAA747
[10] = Acinetobacter baumannii ATCC BAA19606
[11] = Escherichia coli O157:H7 ATCC 35150
[12] = Escherichia coli O157:H7 ATCC 700728

Molecule: CCOC(=O)[C@H](Cc1ccccc1)N1C(=O)/C(=C/c2cccc(-c3ccc(Cl)c(Cl)c3)c2)SC1=S [Rh 8, Ethyl (L,Z)-2-(5-((3',4'-dichloro-[1,1'-biphenyl]-3-yl)methylene)-4-oxo-2-thioxothiazolidin-3-yl)-3-phenylpropanoate]
- antibacterial activity in the presence or absence of HSA (MRSA USA300): not active
- MIC (MRSA USA300; 24 h, Media TSB + 4% HSA): > 64 µM
- MIC (MRSA USA300; Media TSB): > 64 µM

Molecule: CCOC(=O)[C@H](Cc1ccccc1)N1C(=O)/C(=C/c2cccc(Cc3ccc(Cl)c(Cl)c3)c2)SC1=S [Rh 9, Ethyl (L,Z)-2-(5-(3-(3,4-dichlorobenzyl)benzylidene)-4-oxo-2-thioxothiazolidin-3-yl)-3-phenylpropanoate]
- antibacterial activity in the presence or absence of HSA (MRSA USA300): not active
- MIC (MRSA USA300; 24 h, Media TSB + 4% HSA): > 64 µM
- MIC (MRSA USA300; Media TSB): > 64 µM

Molecule: NC(=O)[C@H](Cc1ccccc1)N1C(=O)/C(=C/c2cccc(-c3ccc(Cl)c(Cl)c3)c2)SC1=S [Rh 10, (L,Z)-2-(5-((3',4'-dichloro-[1,1'-biphenyl]-3-yl)methylene)-4-oxo-2-thioxothiazolidin-3-yl)-3-phenylpropanamide]
- antibacterial activity in the presence or absence of HSA (MRSA USA300): not active
- MIC (MRSA USA300; 24 h, Media TSB + 4% HSA): > 64 µM
- MIC (MRSA USA300; Media TSB): > 64 µM

Molecule: colistin [reference compound]
- MIC of colistin (Klebsiella pneumoniae [1]): 0.5 µg/mL
- MIC of colistin (Acinetobacter baumannii [2]; [9]): 0.25 µg/mL
- MIC of colistin (Acinetobacter baumannii [2]; [10]): 0.5 µg/mL
- MIC of colistin (Salmonella Typhimurium): 1 µg/mL
- MIC of colistin (Pseudomonas aeruginosa [3]): 1 µg/mL
- MIC of colistin (Escherichia coli O157:H7 [4]; [11]): 0.125 µg/mL
- MIC of colistin (Escherichia coli O157:H7 [4]; [12]): 0.0625 µg/mL

Molecule: polymixin B nonapeptide [PMBN, reference compound]
- MIC of PMBN (Pseudomonas aeruginosa [5]): >128 µg/mL
- MIC of PMBN (Klebsiella pneumoniae [6]; Klebsiella pneumoniae ATCC BAA 1706): >128 µg/mL
- MIC of PMBN (Klebsiella pneumoniae [6]; Klebsiella pneumoniae ATCC BAA 2146): >128 µg/mL
- MIC of PMBN (Escherichia coli O157:H7 [7]; [11]): >128 µg/mL
- MIC of PMBN (Escherichia coli O157:H7 [7]; [12]): >128 µg/mL
- MIC of PMBN (Acinetobacter baumannii [8]; [9]): >128 µg/mL
- MIC of PMBN (Acinetobacter baumannii [8]; [10]): >128 µg/mL
